Assay results published in ChEMBL document CHEMBL1148075, “Hamacanthins A and B, new antifungal bis indole alkaloids from the deep-water marine sponge, Hamacantha sp” (1994).
≈ marks a conversion by molar mass, not a printed value.

How the values were obtained:
Format in all cases: functional
Candida albicans = test: Antifungal activity against Candida albicans ATCC 44506 after 24 hrs by broth microdilution method; conditions: ATCC 44506, 24 h
Cryptococcus neoformans = test: Antifungal activity against Cryptococcus neoformans ATCC 32045 after 48 hrs by broth microdilution method; conditions: ATCC 32045, 48 h
Bacillus subtilis = test: Antimicrobial activity against Bacillus subtilis ATCC 6633 after 24 hrs by broth microdilution method; conditions: ATCC 6633, 24 h

SMILES	MIC (Candida albicans)	MIC (Cryptococcus neoformans)	MIC (Bacillus subtilis)
O=C1N[C@@H](c2c[nH]c3cc(Br)ccc23)CN=C1c1c[nH]c2cc(Br)ccc12 [HAMACANTHIN A]	1.6 µg/mL (≈ 3.29 µM)	3.1 µg/mL (≈ 6.38 µM)	3.1 µg/mL (≈ 6.38 µM)
O=C1NC[C@H](c2c[nH]c3cc(Br)ccc23)N=C1c1c[nH]c2cc(Br)ccc12 [HAMACANTHIN B]	6.2 µg/mL (≈ 12.8 µM)	6.2 µg/mL (≈ 12.8 µM)	1.6 µg/mL (≈ 3.29 µM)
